These results are taken from ChEMBL document CHEMBL1125964, “Synthesis and biological activivity of juvenele hormone analogues (JHA) for Trypanosoma cruzi” (1991).

Holding throughout (assay type): functional
Assay [1] relates to Trypanosoma cruzi. The experiment in a line: Compound was evaluated for its percent inhibition of growth of Trypanosoma cruzi at 100 uM/L.
Assay [2] concerns Trypanosoma cruzi. Kind of assay: Compound was evaluated for its percent inhibition of growth of Trypanosoma cruzi at of 50 uM/L.
Assay [3] concerns Trypanosoma cruzi. Kind of assay: Compound was evaluated for its percent inhibition of thymidine incorporation in Trypanosoma cruzi without killing the cells at 25 degree Celsius and 100 uM/L. For orientation: Incorporation of labelled thymidine or its analogues reports DNA synthesis.
The test system of assay [4] is Trypanosoma cruzi. The experiment in a line: Compound was evaluated for its percent inhibition of thymidine incorporation in Trypanosoma cruzi without killing the cells at 25 degree Celsius and 50 uM/L.
The test system of assay [5] is Trypanosoma cruzi. The experiment in a line: Compound was evaluated for its percent inhibition for thymidine incorporation in Trypanosoma cruzi without killing the cells at 25 degree Celsius and 17 uM/L.

As usually defined, the inhibition is the percentage by which the read-out fell short of the control. The low end stands for a weak effect, the high end for a strong effect. The Inhibition is the change of the read-out against control, counted positive when it falls.

SMILES strings stand for the structures.

In turn, `COC(=O)OCCC/C=C(\C)CCC=C(C)C` came in with an inhibition at 100 µM in assay [1] of 56%. Moreover, 50 µM produced 41.3% inhibition in assay [2]. The Inhibition in assay [3] is listed as 95.3%; in assay [4] it was 66.3%.

Consider `C/C=C\CC/C(C)=C/CCC(C)OC(=O)OCC(C)C` (stereo unspecified), for which the inhibition at 100 µM in assay [1] stood at 75.4%. For the same compound, the inhibition at 50 µM in assay [2] is 47.6%. Moreover, the Inhibition in assay [3] turned out to be 89.6%; in assay [4] it was 70.1%.

`COC(=O)OC/C=C(\C)CC/C=C(\C)CCC1OC1(C)C` (stereo unspecified): in assay [1], testing at 100 µM gave an inhibition of 62.8%. Besides, the inhibition at 50 µM in assay [2] is 44.8%. In addition, the Inhibition in assay [3] was 46.3%; in assay [4] it was 25.7%.

`CC(C)=CCC/C(C)=C/CCCOC(=O)OCC(C)C`: the Inhibition in assay [5] turned out to be 50.6%; in assay [3], 100.1%; in assay [4], 88.4%. Further, the inhibition at 100 µM in assay [1] worked out at 94%. Further, in assay [2], the inhibition at 50 µM came to 57.3%.

`CC/C(C)=C\CC/C(C)=C/CCC(C)OC(=O)OCC(C)C` (stereo unspecified) showed an inhibition at 100 µM in assay [1] of 68%. Besides, the inhibition at 50 µM in assay [2] is 56.6%. For the same compound, the Inhibition is on record as 70.8% in assay [3] and 62.8% in assay [4].

In assay [1], `CCSC(=O)OC(C)CC/C=C(\C)CC/C=C(/C)CC` (stereo unspecified) returned an inhibition at 100 µM of 79.4%. In addition, at 50 µM the inhibition in assay [2] was 50.7%. Moreover, the results for the Inhibition in assay [3] and in assay [4] were 75.2% and 65.3%, respectively.

Take `CC(C)=CCC/C(C)=C/CCC(C)OC(=O)OCC(C)C` (stereo unspecified): in assay [1], the inhibition at 100 µM was 89.6%. This compound showed an inhibition at 50 µM in assay [2] of 70.8%. The values for the Inhibition in assay [3] and in assay [4] were 95.8% and 73.3%, respectively.

In turn, `COC(=O)OC(C)CC/C=C(\C)CCC=C(C)C` (stereo unspecified) had an inhibition at 100 µM in assay [1] of 97.5%. In assay [2], this compound returned an inhibition at 50 µM of 51%. In addition, the values for the Inhibition in assay [3] and in assay [4] were 91.6% and 75.6%, respectively.

`CC(C)(C)OC(=O)CC(O)COc1ccc(Oc2ccccc2)cc1` (stereo unspecified) returned an inhibition at 100 µM in assay [1] of 98.8%. This compound also returned an inhibition at 50 µM in assay [2] of 67.2%. Moreover, the Inhibition in assay [3] was determined as 93.5%; in assay [4], 70.6%.

With `C=CCOc1ccc(Oc2ccccc2)cc1`, the inhibition at 100 µM in assay [1] turned out to be 95.4%. For the same compound, the inhibition at 50 µM in assay [2] was 80.8%. In addition, the Inhibition in assay [3] is recorded as 83.9%; in assay [4], 60.9%.

The compound `COC(C)(C)CCCC(C)C/C=C/C(C)=C/C(=O)OC(C)C` (stereo unspecified) registered an inhibition at 100 µM in assay [1] of 92.5%. The compound also came in with an inhibition at 50 µM in assay [2] of 60%. Moreover, the Inhibition in assay [3] came to 86.5%; in assay [4] it was 70.5%.

In turn, `C/C(=C\CCC(C)OC(=O)OCC(C)C)CCC1OC1(C)C` (stereo unspecified) had an inhibition at 100 µM in assay [1] of 68%. For the same compound, at 50 µM the inhibition in assay [2] was 33.4%. The results for the Inhibition in assay [3] and in assay [4] were 70% and 50.8%, respectively.

`CCSC(=O)OC/C=C(\C)CC/C=C(\C)CCC=C(C)C` showed an inhibition at 100 µM in assay [1] of 94.2%. In assay [2], this compound yielded an inhibition at 50 µM of 69.3%. Besides, the values for the Inhibition in assay [3] and in assay [4] were 72.6% and 57.9%, respectively.

In assay [1], `c1ccc(Oc2ccc(OCCOC3CCCCO3)cc2)cc1` (stereo unspecified) had an inhibition at 100 µM of 90.6%. In assay [2], this compound registered an inhibition at 50 µM of 57%. For the same compound, the Inhibition was 86.2% in assay [3] and 40.8% in assay [4].

Compound `CCSC(=O)OC/C=C(\C)CC/C=C(\C)CCC1OC1(C)C` (stereo unspecified) showed an inhibition at 100 µM in assay [1] of 99%. This compound had an inhibition at 50 µM in assay [2] of 90.7%. Also, the Inhibition in assay [3] is recorded as 95.6%; in assay [4], 80.7%.
